According to patent US20210386754A1, “COMPOSITIONS AND METHODS FOR TREATING ATHEROSCLEROTIC VASCULAR DISEASE” (AUGUSTA UNIVERSITY RESEARCH INSTITUTE, INC., priority 2020, published 2021):
“Also recorded” adds a separate entry of the source.

Tested on: THP-1 macrophages
Test: Foam cell formation / nLDL macropinocytosis, Nile Red FACS
Format: cell-based, human
Conditions: EIPA 25 μM, 1 hr pre-incubation; nLDL 50 μg/ml
Description: Flow cytometry experiments were performed using the BD Accuri C6 flow cytometer using a standard protocol.
Foam cell formation: THP-1 macrophages or bone marrow-derived macrophages were treated with vehicle, known macropinocytosis stimulators (PMA 1 μM, M-CSF 100 ng/mL or PDGF 200 ng/mL)+/− macropinocytosis inhibitors (imipramine 10 μM or EIPA 25 μM; 1 hour pre-incubation) in the presence of nLDL, ox-LDL, or ac-LDL ([…]) for 24 hours. Cells were fixed in 2% PFA and stained with Nile Red (50 ng/mL) for 7 min. Fluorescence intensity was measured using the FL3 channel for Nile Red (Ex: 488 nm, Em: 670 nm).

## CCN(c1nc(N)c(C(=O)N=C(N)N)nc1Cl)C(C)C [EIPA, 5-(N-ethyl-N-isopropyl)amiloride]
  PMA-induced nLDL macropinocytosis: blocks macrophage macropinocytosis; also recorded: inhibits
